Assay results from patent publication EP0877031A1, “TGF-Beta1 derived peptides mimicking the activity of transforming growth factor-Beta1” (INSTITUUT VOOR DIERHOUDERIJ EN DIERGEZONDHEID (ID-DLO), priority 1997, dated 1998).

Legend:
[1] = system: Mink lung epithelial cells (Mv 1 Lu); assay: Mv 1 Lu growth inhibition assay for agonistic TGF activity (peptides alone, acid phosphatase readout); type: cell-based; conditions: peptide alone, 5 days of incubation, acid phosphatase activity as marker for cell growth
Protocol: (§1) An assay for TGF-β1 biological activity, bases on Mink lung epithelial cells (Mv 1 Lu), was used for analysis of the biological activity of peptides derived from the human TGF-β1 primary sequence. This assay is based on growth inhibition of Mv 1 Lu cells in presence of TGF-β1. Inhihition of Mv 1 Lu growth is quantified by acid phosphatase activity as a marker for cell growth.
(§2) Mink lung epithelial cells (Mv 1 Lu) were plated in 96-well tissue culture plates (Costar, Cambridge, MA) at 100 cells/well in 100 µl Eagle's MEM supplemented with 20IE/ml penicillin, 1 mg/ml streptomycin, 0.4 mM L-glutamine, 10 mM HEPES and 10% FCS (HyClone, Logan, UT). Plates were incubated at 37°C and 5% CO2 in a humidified incubator for 1.5 h to allow cell attachment. After cell attachment peptides were added in a volume of 50 µl in Eagle's MEM supplemented with 20IE/ml penicillin, 1 mg/ml streptomycin, 0.4 mM L-glutamine, 10 mM HEPES and 10% FCS and titrated with eight threefold dilutions of peptide. The cells were subsequently incubated for 5 days at 37°C and 5% CO2 in a humidified incubator. After incubation cell growth was monitored using acid phosphatase activity as a marker: The plates were washed twice with 200 µl PBS per well and 100 µl of substrate solution (0.1 M sodium acetate, 0,1% Triton X-100, 3.7 mg/ml p-nitrophenyl phosphate, pH 5.5) were added to each well. The plates were then incubated for 1.5 h at 37°C, after which 25 µl of 0.4 M NaOH were added to each well. Acid phosphatase activity was detected by measuring the OD of the substrate solution using an microplate reader at 405 nm.
In this example, all peptides comprising 12 amino acids prepared as described under the head "Peptide synthesis", were tested in the Mv 1 Lu growth inhibition assay. In this assay peptides were titrated in eight threefold dilutions, starting with a peptide quantity of 10-100 µg per well. After 5 days of incubation the wells were tested for acid phosphatase activity.

[2] = system: Mink lung epithelial cells (Mv 1 Lu); assay: Mv 1 Lu growth inhibition assay, preincubation with peptides followed by a suboptimal quantity of TGF-β1; type: cell-based; conditions: 4 h preincubation with peptide, then suboptimal 3.3 x 10^-3 µM TGF-β1, 5 days of incubation
Protocol: as §1, §2
In this example Mv 1 Lu cells were preincubated with TGF-β1 derived peptides which were titrated in eight threefold dilutions, starting with a peptide quantity of 10-100 µg per well. After 4 h of preincubation a suboptimal quantity of 3.3 x 10^-3 µM TGF-β1. The TGF-β1 (R&D systems, M1) Porcine TGF-β1 is 100% homologue to humam TGF-β1 (Roberts et al. in Handbook of Experimental Pharmacology, Editors Sporn, M.B.; Robers A.B.; Springer Verlag Heidelberg (1990), 95, 419) was added. After 5 days of incubation the wells were tested for acid phosphatase activity.

Sequence	growth inhibition of mink lung epithelial cells (TGF agonist activity) [1]	enhanced inhibition of the growth of mink lung epithelial cells when combined with TGF-β1 (synergistic effect) [2]
FSSTEKNCCVRQ	inhibited the growth of mink lung epithelial cells in a similar way as TGF-β1 does	
KNCCVRQLYIDF		enhanced inhibition of the growth of the mink lung epithelial cells
HNPGASAAPCCV		enhanced inhibition of the growth of the mink lung epithelial cells
LSNMIVRSCKCS	inhibited the growth of mink lung epithelial cells in a similar way as TGF-β1 does	enhanced inhibition of the growth of the mink lung epithelial cells
NCCVRQLYIDFR	inhibited the growth of mink lung epithelial cells in a similar way as TGF-β1 does	enhanced inhibition of the growth of the mink lung epithelial cells
CCVRQLYIDFRK	inhibited the growth of mink lung epithelial cells in a similar way as TGF-β1 does	enhanced inhibition of the growth of the mink lung epithelial cells
EKNCCVRQLYID	inhibited the growth of mink lung epithelial cells in a similar way as TGF-β1 does	
CFSSTEKNCCVR	inhibited the growth of mink lung epithelial cells in a similar way as TGF-β1 does	
QHNPGASAAPCC		enhanced inhibition of the growth of the mink lung epithelial cells
